Marks after values point to notes of the source that are not given here.
Assays:
[1] = target: T1, β5i subunit of human iCP (Homo sapiens, UniProt P20618+P28062); design: method as in PMID 33894528; conditions: limited stability of compounds after 1 h in assay buffer; read-out: IC50 (µM) against the β5i subunit of human iCP; cited from earlier work
T1 construct: purchased Boston Biochem, Inc., Cambridge, MA, USA

[2] = target: T1, β5i subunit of human iCP; assay: Inhibition of β5i activity (RA at 10 µM, IC50, IC50 shift), Suc-LLVY-AMC; assay type: biochemical; conditions: for Group efficiency (GE): ΔpIC50/ΔNheavy with compound 1 as reference; for RA (%) at 10 µM, β5i: 10 µM compound, 30 min pre-incubation, SDS activator
Description: Residual activity measurements were performed at 10 μM final concentrations in the assay buffer (0.01% SDS, 50 mM Tris-HCl, 0.5 mM EDTA, pH 7.4). Stock solutions of the compounds were prepared in DMSO. To 50 μL of each compound in buffer, 25 μL of 0.8 nM human iCP or human cCP (both from Boston Biochem, Inc., Cambridge, MA, USA) were added. After incubation at 37 °C for 30 min, the reaction was started by adding of 25 μL of 100 μM relevant fluorogenic substrate: acetyl-Nle-Pro-Nle-Asp-AMC (Ac-nLPnLD-AMC, (Bachem, Bubendorf, Switzerland)) for β1, acetyl-Pro-Ala-Leu-7-amino-4-methylcoumarin (Ac-PAL-AMC, (Boston Biochem, Inc., Cambridge, MA, USA)) for β1i, t-butyloxycarbonyl-Leu-Arg-Arg-7-amino-4-methylcoumarin (Boc-LRR-AMC, (Bachem, Bubendorf, Switzerland)) for β2 and β2i, succinyl-Leu-Leu-Val-Tyr-7-amino-4-methylcoumarin (Suc-LLVY-AMC) (Bachem, Bubendorf, Switzerland) for β5 and β5i. Reaction progress was recorded on BioTek Synergy HT microplate reader by monitoring fluorescence at 460 nm (λex = 360 nm) for 90 min at 37 °C. The initial linear ranges were used to calculate velocity and determine residual activity. In the case of evaluation of β1, βi, β2, and β2i activities, the assay buffer was modified by replacing SDS with the proteasomal activator PA28α (Boston Biochem, Inc., Cambridge, MA, USA).
Final assay mixtures contained 0.2 nM human iCP or 0.2 nM human cCP in assay buffer (0.01% SDS (or PA28α in cases of β1, β1i subunits), 50 mM Tris-HCl, 0.5 mM EDTA, pH 7.4). Inhibitors were dissolved in DMSO and added to the black 96-well plates for at least eight different concentrations (the final concentration of DMSO was not more than 1%). […] Fluorescence was monitored at 460 nm (λex = 360 nm) for 90 min at 37 °C. The progress of the reactions was recorded and the initial linear ranges were used to calculate the velocity. IC50 values were calculated using GraphPadPrism (GraphPad Software, San Diego, CA, USA) and are means from at least three independent determinations.

[3] = HPLC-based GSH reactivity assay; assay type: physicochemical; conditions: 250 µM compound, 5 mM GSH, PBS pH 7.4
Description: (§1) GSH reactivity assay was performed as described by Petri et al.; 500 μM solution of compound (PBS buffer pH 7.4, 10% MeCN, 250 μL) with 200 μM solution of indoprofen as internal standard were added to 10 mM GSH solution (dissolved in PBS buffer, 250 μL) in a 1:1 ratio. […] The final mixture was analyzed by HPLC after 0, 1, 2, 4, 8, 12, 24, 48, and 72 h. The degradation kinetics were also studied using the method described in [24], except that pure PBS buffer was used instead of GSH solution. […] The area under the curve (AUC) values were determined by integrating the HPLC spectra and then corrected with the internal standard.

[4] = HPLC-based stability assay in PBS; assay type: physicochemical; conditions: PBS pH 7.4
Description: GSH reactivity assay was performed as described by Petri et al.; 500 μM solution of compound (PBS buffer pH 7.4, 10% MeCN, 250 μL) with 200 μM solution of indoprofen as internal standard were added to 10 mM GSH solution (dissolved in PBS buffer, 250 μL) in a 1:1 ratio. The final concentration was 250 μM compound, 100 μM indoprofen, 5 mM GSH and 5% MeCN (500 μL). The final mixture was analyzed by HPLC after 0, 1, 2, 4, 8, 12, 24, 48, and 72 h. The degradation kinetics were also studied using the method described in [24], except that pure PBS buffer was used instead of GSH solution. In this experiment, the final concentration of the mixture was 250 μM fragment, 100 μM indoprofen and 5% MeCN. The area under the curve (AUC) values were determined by integrating the HPLC spectra and then corrected with the internal standard.

[5] = tested on: GSH; assay: HPLC-based GSH reactivity assay; assay type: physicochemical; conditions: 5 mM glutathione (GSH) in PBS buffer; 250 µM compound, 5 mM GSH, PBS pH 7.4; read-out: Reactivity with GSH (HPLC-based assay), t1/2
Description: as §1

[6] = UV-Vis-based stability assay in buffer; assay type: physicochemical; conditions: after 1 h, assay buffer pH 7.4, 37 °C, 50 µM
Description: The aqueous stability of all compounds was determined spectrophotometrically by following the changes in the absorption spectra of the compounds. The buffer solution (50 mM Tris-HCl, 0.5 mM EDTA, pH 7.4) was pre-incubated at 37 °C. Aliquots of the compounds studied (1 mM in DMSO) were transferred to a 96-well flat-bottom UV-transparent microplate (Corning, CLS3635, Corning Inc, Corning, NY, USA) containing the buffer solution to obtain a 50 μM solution containing 5% DMSO (final volume, 300 μL). The plate was incubated without lid at 37 °C in a plate reader (Synergy H4, BioTek Instruments, Inc., Santa Clara, CA, USA) and the absorbance spectrum (244–400 nm) was acquired in sweep mode after 0, 15, 30, 60, 120, 180, and 240 min using a discontinuous kinetic procedure in Gen5 software (BioTek Instruments, Inc., Santa Clara, CA, USA). The time required to read the entire plate was 3 min. To determine the baseline, the compound solution was replaced with pure DMSO and subtracted from each reading. Compounds with an absorbance maximum of less than 0.20 AU were not evaluated using these assays due to the high experimental error. For other compounds, the relative absorbance difference between the first time point and 60 min at the most responsive wavelength was calculated. If the relative absorbance difference for the compound in the buffer was below 0.1, between 0.1–0.2, and above 0.2, the compound was classified as stable, intermediate, and unstable, respectively.

[7] = target: T2, human iCP (β5i) (Homo sapiens, UniProt P20618+P28062); assay: Screening of heterocyclic electrophilic compounds at 500 µM (β5i); assay type: biochemical; conditions: 30 min incubation
T2 construct: purchased Boston Biochem, Inc., Cambridge, MA, USA
Description: Screening of heterocyclic electrophilic compounds was performed at concentration of 500 µM in assay buffer (0.01% SDS, 50 mM Tris-HCl, 0.5 mM EDTA, pH 7.4). To 50 µL of each compound in buffer, 25 µL of 0.8 nM human iCP (Boston Biochem, Inc., Cambridge, MA, USA) was added. After 30 min incubation at 37 °C, the reaction was started by adding of 25 µL of […] Suc-LLVY-AMC (Bachem, Bubendorf, Switzerland), final concentration 25 µM). The reaction progress was recorded on BioTek Synergy HT microplate reader by monitoring fluorescence at 460 nm (λex = 360 nm) for 90 min at 37 °C. The initial linear ranges were used to calculate the velocity and determine the residual activity.

[8] = target: T3, β5 subunit of human cCP (Homo sapiens, UniProt P20618+P28074); assay: Inhibition of β5 activity (RA, IC50), Suc-LLVY-AMC; assay type: biochemical
T3 construct: purchased Boston Biochem, Inc., Cambridge, MA, USA

Row | SMILES | Group efficiency (GE) [2] | IC50 [1] | Stability in Buffer (HPLC-based assay) [4] | also measured
1 | N#Cc1nc2ccccc2o1 [Compound 1, benzoxazole-2-carbonitrile] |  | 83 ± 6 µM |  | 
2 | N#Cc1nc2cccc(Cl)c2o1 [Compound 4] | 0.92 | 10 ± 4.6 µM |  | 
3 | Cc1ccc2nc(C#N)oc2c1 [Compound 5] |  |  | low absorbance ^c/stable ^d | RA (%) at 10 µM, β5i [2]: 81 ± 4%; Reactivity with GSH (HPLC-based assay), t1/2 [3]: < 3 min
4 | N#Cc1nc2ccc(N)cc2o1 [Compound 22] |  |  | stable ^c,d | Reactivity with GSH (HPLC-based assay), t1/2 [3]: < 3 min; Stability in Buffer (UV-Vis-based assay) [6]: stable ^c,d (relative absorbance difference for the compound in the buffer was below 0.1)
5 | C=Cc1nccs1 [XXI, 2-vinylthiazole] |  |  |  | RA at 500 µM [%] (β5i) [7]: 5 ± 3%
6 | CC(C)C[C@H](NC(=O)[C@H](CCc1ccccc1)NC(=O)CN1CCOCC1)C(=O)N[C@@H](Cc1ccccc1)C(=O)N[C@@H](CC(C)C)C(=O)[C@@]1(C)CO1 [carfilzomib] |  |  |  | β5 RA at 10 nM (control) [8]: 25 ± 1%

Now from value to compound, other results behind:

Row | Group efficiency (GE) [2] | SMILES | IC50 [1] | Stability in Buffer (HPLC-based assay) [4] | also measured
7 | 0.09 | N#Cc1nc2cc(Cl)ccc2o1 [Compound 2] | 67 ± 11 µM |  | 
8 | 0.96 | N#Cc1nc2ccc(Cl)cc2o1 [Compound 3] | 9.1 ± 4.5 µM |  | 
9 | 0.61 | COc1cccc2nc(C#N)oc12 [Compound 9] |  | stable ^c,d | RA (%) at 10 µM, β5i [2]: 20 ± 6% ^f; RA (%) at 10 µM, β5i ([2]; listed as 7-OMe): 20%; half-life at 250 µM [5]: < 3 min; Stability in Buffer (UV-Vis-based assay) [6]: stable ^c,d (relative absorbance difference for the compound in the buffer was below 0.1)
